From patent publication US8058309B2, “Protein kinase modulators and therapeutic uses thereof” (Novotyr Therapeutics Ltd., priority 2006, dated 2011)

Tests used:
Type in all cases: cell-based
BAF3 Bcr-Abl = assay: Proliferation assay BAF3 Bcr-Abl; conditions: Mus musculus, Pro B, 72 hours
Description: (§1) Various cancer cell lines (listed in table 1) were plated at a density of 1000-5000 cells/well in 96-well plates in 90111 growth medium containing 10% FCS, 100 units/ml penicillin and 100 μg/ml streptomycin. Inhibitors were added a day later in 10 μl of 1% DMSO in DDW to obtain final concentrations of 0, 0.1, 0.3, 1, 3, and 10 μM. The final concentration of DMSO (0.1% DMSO) was kept constant in all samples. Medium with inhibitors was refreshed a day and two days later. Following exposure of the cells to the inhibitors for 72 hours at 37° C., the cells were fixed in 0.5% gluteraldehyde in medium for 10 min, washed three times with DDW, once with 0.1M sodium borate buffer pH 8.5 and stained with 1% methylene blue dissolved in 0.1M borate buffer solution for 60 min. Excess dye was washed out and cell-bound dye was eluted with 200 μl/well of 0.1 M HCl. The optical density value was read at 620 nm in ELISA plate reader. The data was analyzed in Microsoft Excel, using the vehicle control as 100% proliferation. The assays were performed in triplicates. The values in table 1 represent IC50 values derived from the dose-dependent growth curves obtained.
(§2) Compounds 6, 7, 8, and 9 were tested for their inhibitory potential in cell proliferation assay. In this assay cells were exposed to increasing concentrations of the molecules (at 0.1% DMSO in all wells) a day after seeding. Medium and inhibitors were refreshed every day, and following three days of treatment, cells were fixed and stained with methylene-Blue. IC50 values were determined from the curves of the optical density against compound concentration. The assay was performed in triplicates.

PC-10 = assay: Proliferation assay PC-10; conditions: Homo sapiens, PC10, Lung, 72 hours
Description: as §1, §2

A2780 = assay: Clonogenic assay A2780; conditions: Homo sapiens, Ovarian
Description: (§3) Various cancer cells (listed in table 1) were seeded at a very low concentration (19 cells/well in 96-well plates or 63 cells/well in 24-well plates) in growth medium. A day later medium was replaced with growth medium containing various concentrations of inhibitors in a final concentration of 0.1% DMSO. The inhibitor-containing medium was refreshed three times a week. Following approximately two weeks cells were fixed by adding Gluteraldehide (0.5% final concentration) for 10 min, washed three time with DDW, once with borate buffer 0.1M and stained for 1 hour with 1% Methylene Blue in borate buffer 0.1M. Access stain was washed with water, and following drying colonies were counted. Alternatively, stain was extracted by 0.1N HCl for 1 hour and absorbance at 620 nm was measured by ELISA Reader. The assays were performed in triplicates. The values in table 1 represent IC50 values derived from the dose-dependent growth curves obtained.

T47D = assay: Proliferation assay T47D; conditions: Homo sapiens, Breast, 72 hours
Description: as §1, §2

DU145 = assay: Proliferation assay DU145; conditions: Homo sapiens, DU-145, Prostate, 72 hours
Description: as §1, §2

QG56 = assay: Proliferation assay QG56; conditions: Homo sapiens, QG-56, Lung, 72 hours
Description: as §1, §2

U138MG = assay: Clonogenic assay U138MG; conditions: Homo sapiens, U138-MG, Glioma
Description: as §3

MO59J = assay: Proliferation assay MO59J; conditions: Glioma, 72 hours
Description: as §1, §2

LNCaP = assay: Proliferation assay LNCaP; conditions: Homo sapiens, Prostate, 72 hours
Description: as §1, §2

IRS1 = IRS1 Ser-phosphorylation and IRS1 levels in MCF7 cells; conditions: breast cancer MCF7 cells
Description: (§4) Tyrosine autophosphorylation of the β-subunit of IGF1R as well as downstream signaling induced by IGF1R were assayed in breast cancer MCF7 cells. Tyrosine autophosphorylation of the EGFR and the EGFR signaling was assayed in prostate cancer PC3 cells. Tyrosine autophosphorylation of the PDGFR and its signaling was assayed in fibroblasts overexpres sing PDGFR. Tyro sine autophosphorylation of the IR and its signaling was assayed in fibroblasts overexpressing IR. Cells were seeded in 6-well plates (MCF7-250,000 cells/well, PC3-150,000 cells/well, fibroblasts-140,000 cells/well) and 24 hours later medium was replaced by serum-free medium (DMEM supplemented with 100 units/ml penicillin and 100 μg/ml streptomycin). Following 20 hours of serum-starvation medium was replaced with medium containing various concentrations of the inhibitors in 0.1% DMSO for additional 4 hours. Cells were then stimulated for 5 min with 50 ng/ml IGF-1 (MCF7 cells), 20 ng/ml EGF (PC3 cells), 50 ng/ml PDGF (fibroblasts overexpressing PDGFR) or 100 nM insulin (fibroblasts overexpressing IR), washed twice with PBS and lysed by boiling sample buffer (10% glycerol, 50 mM Tris-HCl, pH 6.8, 3% SDS, and 5%, β-mercaptoethanol). Equal amounts of protein per lane were separated by 8% SDS-PAGE and transferred to a nitrocellulose membrane (Sartorius AG). Phosphorylated proteins were immunoblotted with anti-phospho-IGF1R (phosphor-IGF1R), anti-phosphotyrosine-IRS1 (phospho-IRS1), anti-phospho(T308)Akt (phospho-PKB), anti-phospho-Erk (phospho-ERK), anti-phosphotyrosine 4G10&PY20 (pY-EGFR or pY-PDGFR), anti-phospho-Ser^636/639-IRS1 (pS^636/639-IRS1) and anti-phospho-STAT3 (phospho-STAT3) antibodies. Detection was performed with horseradish peroxidase-conjugated secondary antibody using the ECL system. Blots were then stripped of antibodies, blocked with TBST with 5% low fat milk and re-probed with antibodies detecting both the phosphorylated and the non-phosphorylated corresponding proteins e.g. IGF1Rβ, IRS1, PKB, ERK, IRβ, PDGFR and Stat3.
In addition, lysates were prepared from cells exposed to inhibitors at various concentrations for 24 hours in the presence or the absence of FCS without stimulation. Lysate preparation and western blot were the same as described above. Apoptosis was detected by immunoblotting with rabbit anti-PARP antibodies.

MDA MB 231 = assay: Proliferation assay MDA MB 231; conditions: Homo sapiens, Breast, 72 hours
Description: as §1, §2

EGFR = target: T1, EGFR (Homo sapiens, UniProt P00533); assay: EGFR activation and EGF-induced signaling in PC3 cells; conditions: EGF stimulation
T1 construct: endogenous in cells; host or cells: PC3
T1 sequence (P00533 25-1210): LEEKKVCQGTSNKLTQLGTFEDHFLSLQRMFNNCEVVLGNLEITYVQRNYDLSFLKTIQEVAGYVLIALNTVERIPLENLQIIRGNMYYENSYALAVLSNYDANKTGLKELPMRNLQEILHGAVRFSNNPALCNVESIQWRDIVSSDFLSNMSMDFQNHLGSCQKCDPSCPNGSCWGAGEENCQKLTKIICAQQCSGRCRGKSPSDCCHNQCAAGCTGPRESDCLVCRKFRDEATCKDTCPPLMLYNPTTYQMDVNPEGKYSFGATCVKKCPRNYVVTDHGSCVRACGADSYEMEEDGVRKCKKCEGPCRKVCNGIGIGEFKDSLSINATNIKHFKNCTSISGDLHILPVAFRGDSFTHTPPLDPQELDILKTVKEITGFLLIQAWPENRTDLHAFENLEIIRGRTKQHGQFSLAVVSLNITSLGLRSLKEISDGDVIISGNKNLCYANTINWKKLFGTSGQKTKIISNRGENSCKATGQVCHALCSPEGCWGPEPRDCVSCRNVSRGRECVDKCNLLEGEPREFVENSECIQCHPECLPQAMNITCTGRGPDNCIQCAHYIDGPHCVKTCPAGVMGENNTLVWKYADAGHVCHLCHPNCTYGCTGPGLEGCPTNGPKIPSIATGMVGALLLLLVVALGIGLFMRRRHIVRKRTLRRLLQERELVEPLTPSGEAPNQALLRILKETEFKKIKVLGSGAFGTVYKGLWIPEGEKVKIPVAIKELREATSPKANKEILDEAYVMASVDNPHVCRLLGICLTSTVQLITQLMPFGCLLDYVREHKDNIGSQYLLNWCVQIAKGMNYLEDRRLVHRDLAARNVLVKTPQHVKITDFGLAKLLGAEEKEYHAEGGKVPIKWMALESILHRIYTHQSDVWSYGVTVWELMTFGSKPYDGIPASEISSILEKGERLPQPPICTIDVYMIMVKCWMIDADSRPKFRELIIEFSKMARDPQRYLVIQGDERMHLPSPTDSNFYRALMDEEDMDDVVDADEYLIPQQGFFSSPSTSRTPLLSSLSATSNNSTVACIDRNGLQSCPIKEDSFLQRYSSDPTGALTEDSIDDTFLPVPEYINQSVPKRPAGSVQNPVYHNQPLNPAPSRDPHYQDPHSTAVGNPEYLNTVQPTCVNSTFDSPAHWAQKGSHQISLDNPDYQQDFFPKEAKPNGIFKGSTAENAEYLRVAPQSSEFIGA
Description: as §4, with “Phosphorylated proteins were immunoblotted with anti-phospho-IGF1R (phosphor-IGF1R), anti-phosphotyrosine-IRS1 (phospho-IRS1), anti-phospho(T308)Akt (phospho-PKB), anti-phospho-Erk (phospho-ERK), anti-phosphotyrosine 4G10&PY20 (pY-EGFR or pY-PDGFR), anti-phospho-Ser^636/639-IRS1 (pS^636/639-IRS1) and anti-phospho-STAT3 (phospho-STAT3) antibodies. Detection was performed with horseradish peroxidase-conjugated secondary antibody using the ECL system. Blots were then stripped of antibodies, blocked with TBST with 5% low fat milk and re-probed with antibodies detecting both the phosphorylated and the non-phosphorylated corresponding proteins e.g. IGF1Rβ, IRS1, PKB, ERK, IRβ, PDGFR and Stat3.” left out

| IC50 (BAF3 Bcr-Abl) | IC50 (A2780) | IC50 (T47D) | IC50 (DU145) | IC50 (U138MG) | IC50 (LNCaP) | Inhibition of EGFR and EGF-induced signaling in intact cells (EGFR) | SMILES | IC50 (PC-10) | IC50 (QG56) | IC50 (MO59J) | IRS1 Ser-phosphorylation (IRS1) | IC50 (MDA MB 231) | Cellular levels of IRS1 (IRS1) |
| --- | --- | --- | --- | --- | --- | --- | --- | --- | --- | --- | --- | --- | --- |
| > 10 µM | 0.4 µM | 2.5 µM | 6.5 µM | 1.6 µM | 7.7 µM | – | N#C/C(=C\c1cc(O)c(O)c(I)c1)C(=S)NCc1cc(O)c(O)c(O)c1 [Compound 8] | 5.8 µM | 4.4 µM | 1.6 µM | trigger IRS1-ser phosphorylation | 7.4 µM | – |
| 8.2 µM | 0.4 µM | 2.1 µM | 6.6 µM | 1.8 µM | > 10 µM | inhibits | N#C/C(=C\c1cc(O)c(O)c(Br)c1)C(=S)NCc1cc(O)c(O)c(O)c1 [Compound 7] | 5.2 µM | 5.2 µM | 2.1 µM | increase in IRS1 Ser-phosphorylation | 6.3 µM | induce a decrease in the cellular levels |
| 6.1 µM | 0.3 µM | 1.6 µM | 1.8 µM | 0.5 µM | 4.7 µM | – | Oc1cc(CNC(=S)/C=C/c2cc(O)c(O)c(Br)c2)cc(O)c1O [Compound 9] | 3.8 µM | 2 µM | 0.9 µM | trigger IRS1-ser phosphorylation | > 10 µM | – |
| 7.7 µM | 0.1 µM | > 10 µM | > 10 µM | 2.2 µM | > 10 µM | inhibited also EGFR | N#C/C(=C\c1cc(O)c(O)c(Br)c1)C(=S)NCc1cc(O)c(O)c(Br)c1 [Compound 6] | > 10 µM | > 10 µM | 8.3 µM | – | > 10 µM | has no effect |
